Reference: PubChem BioAssay AID256 (DTP/NCI, 2004)
“And” between values parts separate entries of the source, which are not always exact repeats. Equal values may be shown once. Inconclusive results and toxic doses are left out. Rule for the calls: active = survival T/C of 150% or more; inactive = T/C below 125% in these data.

Test system: CD2F1 mice, L1210 leukemia ip, survival T/C
Experiment: NCI In Vivo Anticancer Drug Screen. Data for tumor model L1210 Leukemia (intraperitoneal) in CD2F1 (CDF1) mice
Details: higher = longer survival
Outline: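 Activity against a transplanted murine tumor was judged by comparing the compound group with a vehicle group. The outcome in the treated animals was divided by that in the controls.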

[1] = endpoint: mean survival time, dose: 100.0 mg/kg/injection, schedule: Q04DX002 (ip), vehicle: saline with Tween-80
[2] = endpoint: mean survival time, dose: 200.0 mg/kg/injection, schedule: Q04DX002 (ip), vehicle: saline with Tween-80
[3] = endpoint: mean survival time, dose: 100.0 mg/kg/injection, schedule: Q01DX001 (ip), vehicle: saline with Tween-80
[4] = endpoint: mean survival time, dose: 200.0 mg/kg/injection, schedule: Q01DX001 (ip), vehicle: saline with Tween-80
[5] = endpoint: mean survival time, dose: 400.0 mg/kg/injection, schedule: Q01DX001 (ip), vehicle: saline with Tween-80
[6] = endpoint: mean survival time, dose: 100.0 mg/kg/injection, schedule: Q01DX009 (ip), vehicle: saline with Tween-80
[7] = endpoint: mean survival time, dose: 100.0 mg/kg/injection, schedule: Q04DX003 (ip), vehicle: saline
[8] = endpoint: mean survival time, dose: 200.0 mg/kg/injection, schedule: Q01DX009 (ip), vehicle: saline with Tween-80
[9] = endpoint: mean survival time, dose: 200.0 mg/kg/injection, schedule: Q04DX003 (ip), vehicle: saline
[10] = endpoint: mean survival time, dose: 400.0 mg/kg/injection, schedule: Q01DX009 (ip), vehicle: saline with Tween-80
[11] = endpoint: mean survival time, dose: 400.0 mg/kg/injection, schedule: Q04DX003 (ip), vehicle: saline
[12] = endpoint: mean survival time, dose: 100.0 mg/kg/injection, schedule: Q04DX003 (ip), vehicle: saline with Tween-80
[13] = endpoint: mean survival time, dose: 200.0 mg/kg/injection, schedule: Q04DX003 (ip), vehicle: saline with Tween-80
[14] = endpoint: mean survival time, dose: 400.0 mg/kg/injection, schedule: Q04DX003 (ip), vehicle: saline with Tween-80
[15] = endpoint: mean survival time, dose: 100.0 mg/kg/injection, schedule: Q01DX009 (ip), vehicle: saline
[16] = endpoint: mean survival time, dose: 200.0 mg/kg/injection, schedule: Q01DX009 (ip), vehicle: saline

Measured: T/C

C1CC2(CCC13CO3)CO2 (stereo not given)
inactive: endpoint: mean survival time, dose: 25.0 mg/kg/injection, schedule: Q04DX002 (ip), vehicle: saline with Tween-80 91 % of control | endpoint: mean survival time, dose: 50.0 mg/kg/injection, schedule: Q04DX002 (ip), vehicle: saline with Tween-80 91 % of control and 103 % of control | endpoint: mean survival time, dose: 100.0 mg/kg/injection, schedule: Q04DX002 (ip), vehicle: Klucel (hydroxypropylcellulose) (HPC) 102 % of control | [1] 91 % of control and 107 % of control | endpoint: mean survival time, dose: 200.0 mg/kg/injection, schedule: Q04DX002 (ip), vehicle: Klucel (hydroxypropylcellulose) (HPC) 112 % of control | [2] 100 % of control and 119 % of control | endpoint: mean survival time, dose: 400.0 mg/kg/injection, schedule: Q04DX002 (ip), vehicle: Klucel (hydroxypropylcellulose) (HPC) 119 % of control | endpoint: mean survival time, dose: 600.0 mg/kg/injection, schedule: Q04DX002 (ip), vehicle: Klucel (hydroxypropylcellulose) (HPC) 119 % of control | endpoint: median survival time, dose: 50.0 mg/kg/injection, schedule: Q04DX002 (ip), vehicle: saline with Tween-80 102 % of control | endpoint: median survival time, dose: 100.0 mg/kg/injection, schedule: Q04DX002 (ip), vehicle: saline with Tween-80 105 % of control | endpoint: median survival time, dose: 200.0 mg/kg/injection, schedule: Q04DX002 (ip), vehicle: saline with Tween-80 105 % of control | endpoint: median survival time, dose: 400.0 mg/kg/injection, schedule: Q04DX002 (ip), vehicle: saline with Tween-80 109 % of control | endpoint: median survival time, dose: 800.0 mg/kg/injection, schedule: Q04DX002 (ip), vehicle: saline with Tween-80 114 % of control

CC(C)(C)N
inactive: [3] 100 % of control | [4] 97 % of control | [5] 97 % of control

NC(=O)C(Cl)(Cl)Cl
inactive: [6] 107 % of control | [7] 103 % of control | [8] 104 % of control | [9] 99 % of control | [10] 103 % of control | [11] 99 % of control

O=c1[nH]c(-c2ccccc2)nc(-c2ccccc2)c1CCO
inactive: [12] 95 % of control | [13] 91 % of control | [14] 106 % of control

CCS(=O)(=O)C(C)S(=O)(=O)CC
inactive: [3] 100 % of control | [4] 107 % of control | [5] 104 % of control

O=C(O)c1ccc(S(=O)(=O)N(Cl)Cl)cc1
inactive: [12] 109 % of control | [13] 95 % of control | [14] 95 % of control

CC(=O)Nc1c(N)ncnc1N
inactive: [12] 90 % of control | [13] 93 % of control | [14] 98 % of control

C1CCN(P(N2CCCCC2)N2CCCCC2)CC1
inactive: endpoint: mean survival time, dose: 100.0 mg/kg/injection, schedule: Q04DX002 (ip), vehicle: saline 92 % of control | endpoint: mean survival time, dose: 200.0 mg/kg/injection, schedule: Q04DX002 (ip), vehicle: saline 92 % of control

CN=C(N)N/N=C(\C)c1ccc2sc3ccc(/C(C)=N/NC(N)=NC)cc3c2c1
inactive: endpoint: median survival time, dose: 25.0 mg/kg/injection, schedule: Q01DX009 (ip), vehicle: saline with Tween-80 113 % of control and 124 % of control | endpoint: median survival time, dose: 50.0 mg/kg/injection, schedule: Q01DX009 (ip), vehicle: saline with Tween-80 112 % of control | endpoint: median survival time, dose: 100.0 mg/kg/injection, schedule: Q01DX009 (ip), vehicle: saline with Tween-80 117 % of control | endpoint: median survival time, dose: 200.0 mg/kg/injection, schedule: Q01DX009 (ip), vehicle: saline with Tween-80 119 % of control | endpoint: median survival time, dose: 400.0 mg/kg/injection, schedule: Q01DX009 (ip), vehicle: saline with Tween-80 119 % of control and 102 % of control

O=C(O)CCN1CCCc2ccccc21
inactive: endpoint: mean survival time, dose: 100.0 mg/kg/injection, schedule: Q01DX009 (ip), vehicle: other 109 % of control | endpoint: mean survival time, dose: 100.0 mg/kg/injection, schedule: Q04DX003 (ip), vehicle: other 95 % of control | endpoint: mean survival time, dose: 200.0 mg/kg/injection, schedule: Q01DX009 (ip), vehicle: other 103 % of control | endpoint: mean survival time, dose: 200.0 mg/kg/injection, schedule: Q04DX003 (ip), vehicle: other 107 % of control | endpoint: mean survival time, dose: 400.0 mg/kg/injection, schedule: Q04DX003 (ip), vehicle: other 96 % of control

COc1ccc(F)cc1NC(=O)OC(C)C
inactive: [6] 92 % of control | [8] 96 % of control | [10] 96 % of control

CC(=O)OCC1OC(OC(C)=O)C(OC(C)=O)C(OC(C)=O)C1OC(C)=O (stereo not given)
inactive: [7] 95 % of control | [9] 98 % of control | [11] 97 % of control

O=S(=O)(OC1CCCCC1Cl)c1ccc(Br)cc1 (stereo not given)
inactive: [12] 102 % of control | [13] 94 % of control | [14] 94 % of control

S=C=NCCc1ccccc1
inactive: endpoint: mean survival time, dose: 3.12 mg/kg/injection, schedule: Q01DX009 (ip), vehicle: saline with Tween-80 93 % of control | endpoint: mean survival time, dose: 6.25 mg/kg/injection, schedule: Q01DX009 (ip), vehicle: saline with Tween-80 92 % of control | endpoint: mean survival time, dose: 12.5 mg/kg/injection, schedule: Q01DX009 (ip), vehicle: saline with Tween-80 106 % of control | endpoint: mean survival time, dose: 25.0 mg/kg/injection, schedule: Q01DX009 (ip), vehicle: saline with Tween-80 104 % of control | endpoint: mean survival time, dose: 50.0 mg/kg/injection, schedule: Q01DX009 (ip), vehicle: saline with Tween-80 106 % of control

CCOC(=O)c1nc(N)c2c(CC#N)nn(-c3ccccc3)c2n1
inactive: endpoint: mean survival time, dose: 12.5 mg/kg/injection, schedule: Q01DX005 (ip), vehicle: other 90 % of control | endpoint: mean survival time, dose: 25.0 mg/kg/injection, schedule: Q01DX005 (ip), vehicle: other 93 % of control | endpoint: mean survival time, dose: 50.0 mg/kg/injection, schedule: Q01DX005 (ip), vehicle: other 93 % of control | endpoint: mean survival time, dose: 100.0 mg/kg/injection, schedule: Q01DX005 (ip), vehicle: other 87 % of control | endpoint: mean survival time, dose: 200.0 mg/kg/injection, schedule: Q01DX005 (ip), vehicle: other 93 % of control

O=C(COc1cccc(Cl)c1)NCc1ccc(NC(=O)c2ccc(S(=O)(=O)F)cc2)cc1
inactive: [3] 96 % of control | [4] 91 % of control | [5] 87 % of control

Cc1cc[n+](C)c(-c2ccccc2)c1
inactive: endpoint: mean survival time, dose: 6.25 mg/kg/injection, schedule: Q01DX009 (ip), vehicle: saline sonified 100 % of control | endpoint: mean survival time, dose: 12.5 mg/kg/injection, schedule: Q01DX009 (ip), vehicle: saline sonified 101 % of control | endpoint: mean survival time, dose: 25.0 mg/kg/injection, schedule: Q01DX009 (ip), vehicle: saline sonified 109 % of control

O=C1OCCN1S(=O)(=O)c1ccc(Cl)cc1
inactive: [6] 95 % of control | [12] 104 % of control | [8] 93 % of control | [13] 102 % of control | [10] 95 % of control | [14] 98 % of control

CC1=CC(S)NC(=S)N1 (stereo not given)
inactive: [1] 103 % of control | [2] 95 % of control | endpoint: mean survival time, dose: 400.0 mg/kg/injection, schedule: Q04DX002 (ip), vehicle: saline with Tween-80 106 % of control

O=C(COc1ccccc1)NCc1ccccc1Cl
inactive: [12] 100 % of control | [13] 103 % of control | [14] 91 % of control

CC(C)(C(=O)c1ccccc1)C(OC(=O)c1ccccc1)c1ccccc1 (stereo not given)
inactive: [3] 106 % of control | [4] 98 % of control | [5] 104 % of control

CSc1ncc(Br)c(C(=O)O)n1
inactive: [12] 96 % of control | [13] 96 % of control | [14] 93 % of control

COc1cc(CC(=O)NO)cc(OC)c1OC
inactive: [1] 88 % of control | [2] 88 % of control

O=C(c1ccccc1)C1CCCCC1
inactive: [15] 88 % of control | [16] 97 % of control | endpoint: mean survival time, dose: 400.0 mg/kg/injection, schedule: Q01DX009 (ip), vehicle: saline 92 % of control

CC(=O)[c-]1[c-][c-][c-][c-]1.[Fe+2].[c-]1[c-][c-][cH-][c-]1
inactive: endpoint: mean survival time, dose: 200.0 mg/kg/injection, schedule: Q01DX001 (ip), vehicle: saline 102 % of control | endpoint: mean survival time, dose: 400.0 mg/kg/injection, schedule: Q01DX001 (ip), vehicle: saline 100 % of control

[Br][Pt+2][Br].[NH-]C(CC([NH-])c1ccccc1)c1ccccc1 (stereo not given)
inactive: endpoint: mean survival time, dose: 12.5 mg/kg/injection, schedule: Q04DX003 (ip), vehicle: saline with Tween-80 101 % of control and 107 % of control and 112 % of control | endpoint: mean survival time, dose: 25.0 mg/kg/injection, schedule: Q04DX003 (ip), vehicle: saline with Tween-80 102 % of control and 89 % of control | endpoint: mean survival time, dose: 50.0 mg/kg/injection, schedule: Q04DX003 (ip), vehicle: saline with Tween-80 91 % of control

Cc1ccc(O)c(/C=N/NC(N)=S)n1
inactive: endpoint: mean survival time, dose: 12.5 mg/kg/injection, schedule: Q03HX024 (ip), vehicle: saline 103 % of control | endpoint: mean survival time, dose: 25.0 mg/kg/injection, schedule: Q03HX024 (ip), vehicle: saline 102 % of control | endpoint: mean survival time, dose: 50.0 mg/kg/injection, schedule: Q03HX024 (ip), vehicle: saline 103 % of control

C[n+]1ccccc1CCc1cccc[n+]1C
inactive: endpoint: mean survival time, dose: 50.0 mg/kg/injection, schedule: Q01DX009 (ip), vehicle: saline 100 % of control | [15] 100 % of control | [16] 104 % of control
